In one data set the target is T1, P2X7 receptor (Homo sapiens, UniProt Q99572).
T1 construct: endogenous in cells; host or cells: THP-1 cells
T1 sequence (Q99572 1-595): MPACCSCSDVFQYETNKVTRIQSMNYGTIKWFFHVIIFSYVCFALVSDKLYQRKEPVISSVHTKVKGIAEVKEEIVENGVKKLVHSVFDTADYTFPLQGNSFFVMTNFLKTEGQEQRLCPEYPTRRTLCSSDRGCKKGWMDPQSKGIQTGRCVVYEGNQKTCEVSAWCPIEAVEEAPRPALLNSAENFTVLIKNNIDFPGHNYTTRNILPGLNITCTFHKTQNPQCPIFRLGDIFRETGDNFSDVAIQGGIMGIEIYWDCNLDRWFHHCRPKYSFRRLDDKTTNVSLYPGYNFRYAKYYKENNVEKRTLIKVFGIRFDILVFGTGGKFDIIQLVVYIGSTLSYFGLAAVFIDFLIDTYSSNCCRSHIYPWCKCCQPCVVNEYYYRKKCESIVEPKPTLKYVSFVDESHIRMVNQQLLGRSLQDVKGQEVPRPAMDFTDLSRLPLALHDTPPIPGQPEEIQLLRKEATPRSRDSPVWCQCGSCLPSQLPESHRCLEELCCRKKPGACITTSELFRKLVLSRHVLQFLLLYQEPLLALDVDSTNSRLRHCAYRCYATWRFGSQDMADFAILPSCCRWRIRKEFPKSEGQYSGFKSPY
The data set can be described thus: P2X7 mediated pore formation (YO-PRO dye uptake, FLIPR). The class given is cell-based. Particulars: THP-1 cells. On the procedure:
P2X7 Mediated Pore Formation. Activation of the P2X7 receptor induces nonspecific pore formation and eventually cell lysis (Verhoef et al., The Journal of Immunology, Vol. 170, pages 5728-5738, 2003). Accordingly, the inhibitory activity of the antagonists of the present invention was determined by their capacity to inhibit the agonist-induced pore formation using the fluorescent dye YO-PRO (MW=629) and Fluorescence Imaging Plate Reader (FLIPR, Molecular Devices, Sunnydale, Calif.) in THP-1 cells. […] The YO-PRO iodide dye (1 mM in DMSO) was diluted to a final concentration of 2 μM in PBS (w/o Mg^2+ or Ca^2+) and then placed on the cells immediately prior to the agonist addition. Since the THP-1 cells are a non-adherent cell line, the cells were washed in PBS and loaded with the dye in a conical tube prior to spinning the cells onto poly-lysine-coated black-walled 96-well plates, which were utilized to reduce light scattering. […] The intensity of the fluorescence was captured by the CCD camera every 15 seconds for the first 10 minutes of agonist exposure followed by every 20 seconds for an additional 50 minutes with the data being digitally transferred to an interfaced PC. The exposure setting of the camera was 0.25 sec with an f-stop setting of 2. […]
As for benzoylbenzoic ATP [BzATP], the “EC70 value for agonist activation” value was determined as 50 µM.

System in the next data set: not given
Assay: not given
Details: not given
In turn, `CC(C)(C)C(NC(=O)CCCc1cccnc1)NC(=NC#N)Nc1cccc2ncccc12` (stereo not drawn) [Example 42, N-(1-{[(cyanoimino)(5-quinolinylamino)methyl]amino}-2,2-dimethylpropyl)-4-(3-pyridinyl)butanamide] yielded a melting point of 181 to 182 °C. The same measure, in the same setting: to `COc1cc(OC)cc(C(=O)NC(NC(=NC#N)Nc2cccnc2OC)C(C)(Cl)Cl)c1` (stereo not drawn) [Example 50, N-[2,2-dichloro-1-({(cyanoimino)[(2-methoxy-3-pyridinyl)amino]methyl}amino)propyl]-3,5-dimethoxybenzamide] belongs 198 to 199 °C; to `Cc1ccccc1NC(=NC#N)NC(NC(=O)Cc1ccc2c(c1)OCO2)C(C)(C)C` (stereo not drawn) [Example 15, 2-(1,3-benzodioxol-5-yl)-N-[1-({(cyanoimino)[(2-methylphenyl)amino]methyl}amino)-2,2-dimethylpropyl]acetamide], 152 to 153 °C; to `CSc1ccc(CC(=O)NC(NC(=NC#N)Nc2ccccc2C)C(C)(C)C)cc1` (stereo not drawn) [Example 16, N-[1-({(cyanoimino)[(2-methylphenyl)amino]methyl}amino)-2,2-dimethylpropyl]-2-[4-(methylthio)phenyl]acetamide], 151 to 152 °C. The same measure, in the same setting: to `CC(C)(C)C(NC(=O)Cc1ccc2ncccc2c1)NC(=NC#N)Nc1cccc2ncccc12` (stereo not drawn) [Example 40, N-(1-{[(cyanoimino)(5-quinolinylamino)methyl]amino}-2,2-dimethylpropyl)-2-(6-quinolinyl)acetamide] belongs 150 to 151 °C.

The term melting point denotes the temperature of the solid-liquid transition.
